According to US11952582B2, “Herbicide-resistance gene and application thereof in plant breeding” (priority 2017, dated 2024):
“Also recorded” adds a separate entry of the source.

Tests used:
[1] = test system: WT (William 82), OE GmHPPD and OE PaHPPD-SDM T1 soybean plants; assay: Soybean resistance to herbicide at whole plant level (spraying); assay type: in vivo; conditions: 20 μM sprayed twice
Experimental: 20 μM mesotrione (prepared with 0.1% Tween-20) and 0.1% Tween-20 were spray to 4 week-old transgenic T1 generation OE SDMHPPD, T1 generation OE GmHPPD and WT soybean which were grown in an artificial climate chamber (27° C., […], light/dark) for the first time. A second spray was applied after 1 week. Then the phenotype of the plants was observed very day, and the experimental result was recorded by taking photos 2 weeks after the treatment.

[2] = test system: WT (William 82) and OE PaHPPD-SDM soybean leaves; assay: Soybean resistance to herbicide at leaf level (leaf coating); assay type: in vivo; conditions: leaf coating 0-30 μM, 2 weeks
Experimental: Transgenic T0 generation OE SDMHPPD and WT soybean (William 82) seedlings were planted in pots and placed in an artificial climate room (27° C., […], light/dark) for growth. After 4 weeks, 0, 1, 5, 10 and 30 μM of mesotrione (prepared with 0.1% Tween-20) and 0.1% Tween-20 were dipped with cotton swabs and evenly coated to the leaves of OE SDMHPPD (OE SDM #12 and OE SDM #13) T0 generation and WT seedlings having a height of 30-40 cm. Then, the phenotype was observed every week, and the experimental result was recorded by taking photos 2 weeks after the treatment.
To further test the resistance of transgenic soybeans to herbicides, 20 μM mesotrione (prepared with 0.1% Tween-20) and 0.1% Tween-20 were dipped with cotton swabs and evenly coated to the trifoliate leaves of 2 week-old WT, OE GmHPPD (OE GmHPPD #9) T1 generation seedlings and OE SDMHPPD (OE SDMHPPD #12) T1 generation. Then, the phenotype was observed every day, and the experimental result was recorded by taking photos 10 days after the treatment.

[3] = test system: HPPD, VTE1 and VTE3 gene expression in Arabidopsis seedlings; assay: qRT-PCR of HPPD and vitamin E biosynthesis genes in Arabidopsis after herbicide treatment; assay type: in vivo, Arabidopsis thaliana; conditions: 250 nM, 6 h
Experimental: 2 week-old T3 generation seedlings of WT, OE At, OE Pa and OE M3 were used as materials to set up a treatment group and a control group, respectively, wherein the treatment group was continuously cultured in ½ MS liquid medium containing 250 nM mesotrione for 6 h. The total RNA of related materials was extracted using Super Fast Plant RNA Extraction Kit (Beijing Huayueyang Biological Technology Co., Ltd., China). The concentration of RNA samples was measured using NanoDrop ND1000 (Thermo Scientific, USA). RNA samples with an absorbance ratio (at wavelengths of 260/280 nm and 260/230 nm) of approximately 2.0 were selected. The total RNA (1,000 ng) was then used for synthesis of cDNA for reverse transcription using a cDNA synthesis kit (One-step Removal of Transcript gDNA and cDNA Synthesis Super Kit, TransGen).
As for quantitative reverse transcription PCR analysis, 3.0 μL cDNA was used as a template in a 20 μL reaction system to detect the expression levels of HPPD as well as VTE1 and VTE3 genes which encode the key enzymes in the biosynthesis of vitamin E, and actin was used as an internal reference gene. Three technical repetitions were performed on the Bio-Rad CFX96 real-time system. REST software was used for statistical analysis.

[4] = test system: WT and T0 OE SDM rice leaves; assay: Malondialdehyde content in rice leaves; assay type: in vivo; conditions: 200 μM spray, 1 week
Experimental: Malondialdehyde (MDA) is an important marker of the degree of oxide film damage. The previous method (Heath and Packer, 1968) for the determination of malondialdehyde content was referred with slight modifications. 1 g of rice leaves were accurately weighed and place to a pre-cooling mortar. 10 mL of pre-cooling 10% trichloroacetic acid (TCA, v/v) was added and grind thoroughly. Then the lapping solution was transfered to a 10 mL centrifuge tube and centrifuged at 4000 rpm for 10 min (4° C.). 2 mL of supernatant was pipetted and mixed with an equal volume of 0.6% 2-Thiobarbituric acid (TBA, v/v), and incubated at 100° C. for 15 min.
Then the reaction solution was cooled at room temperature. The cooled reaction solution was centrifuged at 4000 rpm for 10 min (4° C.). The supernatant was taken and measured absorbance at wavelengths of 450 nm, 532 nm and 600 nm using ultraviolet spectrophotometers, respectively. Each sample was repeated 3 times. The unit of MDA content is nmol g^−1 FW.

[5] = test system: WT (William 82), OE GmHPPD and OE PaHPPD-SDM T1 soybean plants; assay: Chlorophyll content and plant height of T1 generation soybean after whole plant spraying; assay type: in vivo; conditions: 20 μM sprayed twice, 2 weeks
Experimental: Wild type soybean William 82, T1 generation OE PaHPPD-SDM soybean and T1 generation OE GmHPPD soybean seedlings were sprayed with 20 μM mesotrione (prepared with 0.1% Tween-20) and 0.1% Tween-20 for twice, respectively. The interval between two sprays is 1 week. Two weeks after spray treatment, the total chlorophyll of the leaves was extracted and the content was determined by referring to the method of Lichtenthaler HK (1987). All experiments were repeated biologically 3 times, and the average value was taken.

Structure (SMILES): CS(=O)(=O)c1ccc(C(=O)C2C(=O)CCCC2=O)c([N+](=O)[O-])c1 [mesotrione]
- phenotype after whole plant spraying ([1]; OE PaHPPD-SDM T1 line): grew normally
- phenotype after whole plant spraying ([1]; wild-type William 82 and OE GmHPPD T1 line): albino symptom and growth retardation
- concentration at which leaves did not show symptoms of albino (bleaching) and damage ([2]; OE PaHPPD-SDM soybean line): 30 µM
- concentration at which leaves showed albino (bleaching) symptom ([2]; wild-type soybean William 82): 5 µM
- expression levels of HPPD, VTE1 and VTE3 compared with untreated seedlings ([3]; OE At, OE Pa and WT lines): inhibited to varying degrees
- HPPD gene expression level compared with untreated seedlings ([3]; OE M3 line): basically not inhibited
- gene expression levels of VTE1 and VTE3 compared with untreated seedlings ([3]; OE M3 line): up-regulated
- MDA content in WT rice leaves compared with OE SDM rice leaves [4]: significantly higher
- contents of chlorophyll a and chlorophyll b (and plant height) of treated OE PaHPPD-SDM compared with treated OE GmHPPD and wild type [5]: significant higher
- order of plant height of treated lines [5]: OE PaHPPD-SDM>OE GmHPPD>wild-type soybean William 82
- contents of chlorophyll a and chlorophyll b in leaves (and plant height) compared with control treatment ([5]; OE GmHPPD and wild-type William 82): significantly lower
- contents of chlorophyll a and chlorophyll b in leaves (and plant height) compared with control ([5]; OE PaHPPD-SDM): reduced; also recorded: slightly reduced
- plant height of treated soybean compared with control ([5]; all lines): lower
